Measurements reported in paper doi:10.1101/2025.06.19.660642, “Discovery of orally bioavailable Zika and West Nile Virus antiviral compounds targeting the NS2B-NS3 protease” (bioRxiv, 2025).
pEC50, pKi: −log10 of the molar value. Where two headings read alike, the source gives them in different places.

How the values were obtained:
ZIKV NS2B-NS3 protease = biological target: T1, ZIKV NS2B-NS3 protease (Zika virus, UniProt A0A024B7W1); assay: ZIKV NS2B-NS3 protease biochemical FRET assay; details: for Ki: ZIKV NS2B-NS3 Ki (uM); for Ligand efficiency (LE): Ligand efficiency = pKi / heavy atom count
T1 construct: directed at the co-expressed ZIKV NS2B-NS3 protease

WNV NS2B-NS3 protease = biological target: T2, WNV NS2B-NS3 protease (West Nile virus, UniProt P06935); assay: WNV NS2B-NS3 protease biochemical inhibition
T2 construct: some activity against the WNV NS2B-NS3 protease

ZIKV = ZIKV antiviral assay (virus-induced cytopathy) in Vero E6 cells with P-gp inhibitor; format: cell-based; details: Zika virus, Vero C1008, 168 h, read-out: ZIKV EC50
Procedure: (§1) Figure 5. (A) Further characterization of ASAP-0027808. Papp was determined in MDR1-MDCK cells. Antiviral assays were performed in Vero E6 cells in a 7-day infection using 0.5 uM CP100356 as a P-gp inhibitor (see Supporting Information for more details). (B) The compound was successfully crystallized with ZIKV NS2B-NS3. ASAP-0016806 and ASAP-0027808 both appear to interact with the same residues (catalytic triad His51/Asp75/Ser135 colored yellow, other key residues Tyr161, NS2B Ser81, and NS2B Asp83 colored green). (C) Dose-dependent suppression of ZIKV-induced cytopathy in VeroE6 cells (n=2); no changes to cell viability of uninfected cells treated with the inhibitor was observed. Cells were co-treated with 0.5 μM CP100356 (as P-gp inhibitor). TEXT PRINTED IN THE PICTURE: (A) ASAP-0027808: ZIKV NS2B-NS3 Ki (μM): 0.090; ZIKV EC50 / CC50 (μM): 4.6 / >50; WNV NS2B-NS3 Ki (μM): 2.9; MW (g/mol): 313; CLint,app, HLM (μL/min/mg): < 10; MDR1-MDCK Papp A→B, B→A (10^-6 cm/sec): 2.0 ,11.0; Kinetic solubility (pH 7.4, μM): 279; LogD: 0.9

[1] = Cytotoxicity in uninfected Vero E6 cells; format: cell-based; details: African green monkey; Vero E6 cells, 0.5 uM CP100356 as P-gp inhibitor; read-out: CC50
Procedure: as §1

Vero E6 cells = assay: Cytotoxicity in uninfected Vero E6 cells; format: cell-based; details: Vero E6 cells treated with a P-gp inhibitor, up to 50 μM
Procedure: as §1

urokinase = biological target: T3, urokinase (Homo sapiens, UniProt P00749); assay: Eurofins human protease selectivity panel; format: biochemical; details: read-out: inhibitory activity against urokinase
T3 construct: Eurofins
Text: Upon crystallization in the active site of ZIKV NS2B-NS3, we noted the compound participating with most of the same residues as ASAP-0016806 (Figure 5B): an aromatic interaction with Tyr161, a hydrogen-bonding interaction with Gly151, an aromatic interaction with His51, and an electrostatic interaction with Asp83 (with a possible additional hydrogen bonding interaction to Ser81).

MDR1-MDCK permeability = format: in vitro ADME; details: dog; for Papp A→B: MDCK-MDR1, A→B; for Papp B→A: MDCK-MDR1, B→A
Procedure: as §1

Kinetic solubility = details: pH 7.4
[2] = Microsomal clearance, HLM; details: human, microsomes
[3] = library 1, supplement, read-out: ZIKV NS2B-NS3 Ki

T2 sequence (P06935 1424-1463): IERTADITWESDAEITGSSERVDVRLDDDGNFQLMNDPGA
T2 sequence (P06935 1502-1679): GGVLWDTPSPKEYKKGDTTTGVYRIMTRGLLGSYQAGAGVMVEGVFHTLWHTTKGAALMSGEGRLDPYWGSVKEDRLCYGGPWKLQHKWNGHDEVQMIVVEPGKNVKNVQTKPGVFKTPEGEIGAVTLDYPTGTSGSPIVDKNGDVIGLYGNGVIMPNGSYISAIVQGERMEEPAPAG
T1 sequence (A0A024B7W1 1503-1680): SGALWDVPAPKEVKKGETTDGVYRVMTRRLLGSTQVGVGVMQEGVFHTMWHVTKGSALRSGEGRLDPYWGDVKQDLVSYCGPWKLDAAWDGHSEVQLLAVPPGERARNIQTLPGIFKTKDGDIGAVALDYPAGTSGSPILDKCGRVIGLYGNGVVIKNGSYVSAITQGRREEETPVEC
T1 sequence (A0A024B7W1 1425-1464): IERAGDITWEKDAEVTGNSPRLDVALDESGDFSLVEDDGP

NCc1ccc(F)c(NC(=O)c2cc(Cl)cc(NC(=O)OCc3ccccc3)c2)c1 [ASAP-0021403, NCc1ccc(F)c(NC(=O)c2cc(Cl)cc(NC(=O)OCc3ccccc3)c2)c1]
pKi (ZIKV NS2B-NS3 protease; ZIKV NS2B-NS3 pKi, library 1, supplement): 5.41

O=C(Nc1cc(Cl)cc(C(=O)NC[C@H]2CNC3(CC3)CO2)c1)OCc1ccccc1 [ASAP-0021445, O=C(Nc1cc(Cl)cc(C(=O)NC[C@H]2CNC3(CC3)CO2)c1)OCc1ccccc1 ¦&1:13¦]
ZIKV NS2B-NS3 pKi (ZIKV NS2B-NS3 protease; library 1, supplement): < 4.05
pKi (ZIKV NS2B-NS3 protease; [3]): < 4.05

O=C(Nc1cc(Cl)cc(C(=O)NC2([C@H]3CCNC3)CC2)c1)OCc1ccccc1 [ASAP-0021452, O=C(Nc1cc(Cl)cc(C(=O)NC2([C@H]3CCNC3)CC2)c1)OCc1ccccc1 ¦&1:13¦]
ZIKV NS2B-NS3 pKi (ZIKV NS2B-NS3 protease; library 1, supplement): < 4.05
pKi (ZIKV NS2B-NS3 protease; [3]): < 4.05

NC[C@]1(F)C[C@@H](NC(=O)c2cc(Cl)cc(NC(=O)OCc3ccccc3)c2)C1 [ASAP-0021480, NC[C@]1(F)C[C@@H](NC(=O)c2cc(Cl)cc(NC(=O)OCc3ccccc3)c2)C1]
Ki (ZIKV NS2B-NS3 protease; library 1, supplement): 61.6 µM

C=CC[C@@]1(NC(=O)c2cc(Cl)cc(NC(=O)OCc3ccccc3)c2)CCNC1 [ASAP-0021490, C=CC[C@@]1(NC(=O)c2cc(Cl)cc(NC(=O)OCc3ccccc3)c2)CCNC1 ¦&1:3¦]
ZIKV NS2B-NS3 pKi (ZIKV NS2B-NS3 protease; library 1, supplement): < 4.05
pKi (ZIKV NS2B-NS3 protease; [3]): < 4.05

O=C(Nc1cc(Cl)cc(C(=O)NC[C@@H]2CNCCC2(F)F)c1)OCc1ccccc1 [ASAP-0021511, O=C(Nc1cc(Cl)cc(C(=O)NC[C@@H]2CNCCC2(F)F)c1)OCc1ccccc1 ¦&1:13¦]
ZIKV NS2B-NS3 pKi (ZIKV NS2B-NS3 protease; library 1, supplement): < 4.05
pKi (ZIKV NS2B-NS3 protease; [3]): < 4.05

O=C(Nc1cc(Cl)cc(C(=O)Nc2ccc3c(c2)CNCCO3)c1)OCc1ccccc1 [ASAP-0021552, O=C(Nc1cc(Cl)cc(C(=O)Nc2ccc3c(c2)CNCCO3)c1)OCc1ccccc1]
Ki (ZIKV NS2B-NS3 protease; library 1, supplement): 6.9 µM

O=C(Nc1cc(Cl)cc(C(=O)Nc2nccn2C2CNC2)c1)OCc1ccccc1 [ASAP-0021559, O=C(Nc1cc(Cl)cc(C(=O)Nc2nccn2C2CNC2)c1)OCc1ccccc1]
Ki (ZIKV NS2B-NS3 protease; library 1, supplement): > 89.3 µM

O=C(Nc1cc(Cl)cc(C(=O)Nc2ncc(C3CNC3)s2)c1)OCc1ccccc1 [ASAP-0021562, O=C(NC1=CC(Cl)=CC(C(=O)NC2=NC=C(C3CNC3)S2)=C1)OCC1=CC=CC=C1]
Ki (ZIKV NS2B-NS3 protease; library 1, supplement): > 89.3 µM

O=C(Nc1cc(Cl)cc(C(=O)NC[C@@H]2CC3(CNC3)CO2)c1)OCc1ccccc1 [ASAP-0021589, O=C(Nc1cc(Cl)cc(C(=O)NC[C@@H]2CC3(CNC3)CO2)c1)OCc1ccccc1 ¦&1:13¦]
ZIKV NS2B-NS3 pKi (ZIKV NS2B-NS3 protease; library 1, supplement): 4.38
pKi (ZIKV NS2B-NS3 protease; [3]): 4.38

O=C(Nc1cc(Cl)cc(C(=O)Nc2ccnc(OC3CNC3)c2)c1)OCc1ccccc1 [ASAP-0021594, O=C(Nc1cc(Cl)cc(C(=O)Nc2ccnc(OC3CNC3)c2)c1)OCc1ccccc1]
Ki (ZIKV NS2B-NS3 protease; library 1, supplement): 59.3 µM

NCC12CC(NC(=O)c3cc(Cl)cc(NC(=O)OCc4ccccc4)c3)(CCO1)C2 [ASAP-0021607, NCC12CC(NC(=O)c3cc(Cl)cc(NC(=O)OCc4ccccc4)c3)(CCO1)C2]
Ki (ZIKV NS2B-NS3 protease; library 1, supplement): > 89.3 µM

CNCc1cccc(NC(=O)c2cc(Cl)cc(NC(=O)OCc3ccccc3)c2)c1 [ASAP-0021616, CNCc1cccc(NC(=O)c2cc(Cl)cc(NC(=O)OCc3ccccc3)c2)c1]
Ki (ZIKV NS2B-NS3 protease; library 1, supplement): 17.6 µM

C[C@]1(CNC(=O)c2cc(Cl)cc(NC(=O)OCc3ccccc3)c2)CNCCOC1 [ASAP-0021641, C[C@]1(CNC(=O)c2cc(Cl)cc(NC(=O)OCc3ccccc3)c2)CNCCOC1 ¦&1:1¦]
ZIKV NS2B-NS3 pKi (ZIKV NS2B-NS3 protease; library 1, supplement): < 4.05
pKi (ZIKV NS2B-NS3 protease; [3]): < 4.05

C[C@@H](N)c1cccc(NC(=O)c2cc(Cl)cc(NC(=O)OCc3ccccc3)c2)c1 [ASAP-0021650, C[C@@H](N)c1cccc(NC(=O)c2cc(Cl)cc(NC(=O)OCc3ccccc3)c2)c1]
Ki (ZIKV NS2B-NS3 protease; library 1, supplement): 20.4 µM

NCc1cc(F)cc(NC(=O)c2cc(Cl)cc(NC(=O)OCc3ccccc3)c2)c1 [ASAP-0021659, NCc1cc(F)cc(NC(=O)c2cc(Cl)cc(NC(=O)OCc3ccccc3)c2)c1]
Ki (ZIKV NS2B-NS3 protease; library 1, supplement): 5.26 µM

NC[C@H]1C[C@@H](CNC(=O)c2cc(Cl)cc(NC(=O)OCc3ccccc3)c2)CCO1 [ASAP-0021664, NC[C@H]1C[C@@H](CNC(=O)c2cc(Cl)cc(NC(=O)OCc3ccccc3)c2)CCO1 ¦&1:2,&2:4¦]
ZIKV NS2B-NS3 pKi (ZIKV NS2B-NS3 protease; library 1, supplement): < 4.05
pKi (ZIKV NS2B-NS3 protease; [3]): < 4.05

NCc1ccc(CNC(=O)c2cc(Cl)cc(NC(=O)OCc3ccccc3)c2)c(F)c1 [ASAP-0021676, NCc1ccc(CNC(=O)c2cc(Cl)cc(NC(=O)OCc3ccccc3)c2)c(F)c1]
Ki (ZIKV NS2B-NS3 protease; library 1, supplement): 29.5 µM

O=C(Nc1cc(Cl)cc(C(=O)NCCC2COCCN2)c1)OCc1ccccc1 (stereo not shown) [ASAP-0022490, O=C(NC1=CC(Cl)=CC(C(=O)NCC[C@H]2COCCN2)=C1)OCC1=CC=CC=C1 ¦&1:14¦]
Ki (ZIKV NS2B-NS3 protease; library 1, supplement): > 89.3 µM

NCc1cccc(NC(=O)c2cc(Cl)cc3[nH]ncc23)c1 [ASAP-0023261]
Ligand efficiency (LE) (ZIKV NS2B-NS3 protease): 0.407
pKi (ZIKV NS2B-NS3 protease; ZIKV NS2B-NS3 Ki): 6.10

O=C(Nc1ccc2c(c1)CNC2)c1cc(Cl)cc2[nH]ncc12 [ASAP-0027808]
Ligand efficiency (LE) (ZIKV NS2B-NS3 protease): 0.452
pKi (ZIKV NS2B-NS3 protease; ZIKV NS2B-NS3 Ki): 7.05
pKi (WNV NS2B-NS3 protease): 5.54
pEC50 (ZIKV): 5.34
CC50 [1]: > 50 µM
cytotoxicity (Vero E6 cells): no apparent cytotoxicity
inhibition at 10 µM (urokinase): 21%
Papp A→B (MDR1-MDCK permeability): 2 ×10⁻⁶ cm/s
Papp B→A (MDR1-MDCK permeability): 11 ×10⁻⁶ cm/s
logD (LogD): 0.9
Kinetic solubility (Kinetic solubility): 279 µM
microsomal CLint [2]: < 10 µL/min/mg

N#C[C@@H](Nc1ccc2c(c1)CNC2)c1cc(Cl)cc2[nH]ncc12 [ASAP-0028904]
pKi (ZIKV NS2B-NS3 protease; ZIKV NS2B-NS3 Ki): 7.00
pKi (WNV NS2B-NS3 protease): 4.74
Papp A→B (MDR1-MDCK permeability): 1.1 ×10⁻⁶ cm/s
logD (LogD): 0.9

OCC#C[C@@H](Nc1ccc2c(c1)CNC2)c1cc(Cl)cc2[nH]ncc12 [ASAP-0028990]
pKi (ZIKV NS2B-NS3 protease; ZIKV NS2B-NS3 Ki): 6.00
pKi (WNV NS2B-NS3 protease): 4.68
Papp A→B (MDR1-MDCK permeability): 0.59 ×10⁻⁶ cm/s
logD (LogD): 0.5

CC(C)NC(=O)[C@@H](Nc1ccc2c(c1)CNC2)c1cc(Cl)cc2[nH]ncc12 [ASAP-0029000]
pKi (ZIKV NS2B-NS3 protease; ZIKV NS2B-NS3 Ki): 7.11
pKi (WNV NS2B-NS3 protease): 6.49
Papp B→A (MDR1-MDCK permeability): 2.2 ×10⁻⁶ cm/s
logD (LogD): 0.5

C=CC[C@@H](Nc1ccc2c(c1)CNC2)c1cc(Cl)cc2[nH]ncc12 [ASAP-0029049]
pKi (ZIKV NS2B-NS3 protease; ZIKV NS2B-NS3 Ki): 5.15

Clc1cc(CNc2ccc3c(c2)CNC3)c2cn[nH]c2c1 [ASAP-0029525]
pKi (ZIKV NS2B-NS3 protease; ZIKV NS2B-NS3 Ki): 5.54
pKi (WNV NS2B-NS3 protease): 4.37
pEC50 (ZIKV): 4.75
CC50 [1]: 29.8 µM

CC(C)NC(=O)[C@@H](Nc1ccc2c(c1)CNC2)c1cc(Cl)cc2[nH]ncc12 [ASAP-0029974]
pKi (ZIKV NS2B-NS3 protease; ZIKV NS2B-NS3 Ki): 7.32
pKi (WNV NS2B-NS3 protease): 6.44
pEC50 (ZIKV): 5.24
CC50 [1]: > 50 µM
logD (LogD): 0.5

CC(C)NC(=O)[C@@H](Nc1ccc2c(c1)CN(C)C2)c1cc(Cl)cc2[nH]ncc12 [ASAP-0031156]
pKi (ZIKV NS2B-NS3 protease; ZIKV NS2B-NS3 Ki): 6.32
pKi (WNV NS2B-NS3 protease): 5.80

Cc1cc(C(Nc2ccc3c(c2)CNC3)C(=O)NCC(F)F)cc(C(F)(F)F)c1 (stereo not shown) [ASAP-0031651]
pKi (ZIKV NS2B-NS3 protease; Ki, ZIKV NS2B-NS3): 8.11
pEC50 (ZIKV): 6.35

CC(C)(CO)NC(=O)c1cccc(Cl)c1 [Z68299550]
inhibition in biochemical assay (ZIKV NS2B-NS3 protease; @ 100 μM): n.i.

O=C(Nc1cc(Cl)cc(C(=O)Nc2ccc3c(c2)CNC3)c1)OCc1ccccc1 [ASAP-0020915]
Ligand efficiency (LE) (ZIKV NS2B-NS3 protease): 0.316
ZIKV NS2B-NS3 pKi (ZIKV NS2B-NS3 protease; library 1, supplement): 6.77
pKi (ZIKV NS2B-NS3 protease; [3]): 6.79
